One assay has as its target T1, JAK2 (Homo sapiens, UniProt O60674).
T1 construct: endogenous in cells; host or cells: Molt4 (ATCC CRL-1582) and Ramos (ATCC CRL-1596), mixed lysate 1:2
As to the kind of experiment: Kinobeads assay, JAK2 (competition binding in mixed Molt4/Ramos cell lysate, dot blot detection). Conditions: read-out: JAK2 Band (Kinobeads assay potency, IC50). In short, it runs like this: (§1)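 JAK2 and TYK2 retained on Kinobeads (immobilized aminopyrido-pyrimidine ligand) from 1:2 Molt4:Ramos lysate (10 mg/mL) were quantified by antibody dot blot (Odyssey infrared) after 3 h cold incubation with compound. Nine-step 1:3 dilution series; IC50 calculated from curves.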

In another assay the target is T2, TYK2 (Homo sapiens, UniProt P29597).
T2 construct: endogenous in cells; host or cells: Molt4 (ATCC CRL-1582) and Ramos (ATCC CRL-1596), mixed lysate 1:2
As to the kind of experiment: Kinobeads assay, TYK2 (competition binding in mixed Molt4/Ramos cell lysate, dot blot detection). In short, it runs like this:
as §1

[1] abbreviates: Kinobeads assay, Molt4/Ramos lysate, read-out: TYK2 Band (Kinobeads assay potency, IC50).

SMILES strings stand for the structures. Read-outs that look alike come from different tables or passages of the source. Bounds are passed on as bounds.

Broadly, the IC50 is the concentration needed to halve the response being measured.

T2 sequence (P29597 whole entry): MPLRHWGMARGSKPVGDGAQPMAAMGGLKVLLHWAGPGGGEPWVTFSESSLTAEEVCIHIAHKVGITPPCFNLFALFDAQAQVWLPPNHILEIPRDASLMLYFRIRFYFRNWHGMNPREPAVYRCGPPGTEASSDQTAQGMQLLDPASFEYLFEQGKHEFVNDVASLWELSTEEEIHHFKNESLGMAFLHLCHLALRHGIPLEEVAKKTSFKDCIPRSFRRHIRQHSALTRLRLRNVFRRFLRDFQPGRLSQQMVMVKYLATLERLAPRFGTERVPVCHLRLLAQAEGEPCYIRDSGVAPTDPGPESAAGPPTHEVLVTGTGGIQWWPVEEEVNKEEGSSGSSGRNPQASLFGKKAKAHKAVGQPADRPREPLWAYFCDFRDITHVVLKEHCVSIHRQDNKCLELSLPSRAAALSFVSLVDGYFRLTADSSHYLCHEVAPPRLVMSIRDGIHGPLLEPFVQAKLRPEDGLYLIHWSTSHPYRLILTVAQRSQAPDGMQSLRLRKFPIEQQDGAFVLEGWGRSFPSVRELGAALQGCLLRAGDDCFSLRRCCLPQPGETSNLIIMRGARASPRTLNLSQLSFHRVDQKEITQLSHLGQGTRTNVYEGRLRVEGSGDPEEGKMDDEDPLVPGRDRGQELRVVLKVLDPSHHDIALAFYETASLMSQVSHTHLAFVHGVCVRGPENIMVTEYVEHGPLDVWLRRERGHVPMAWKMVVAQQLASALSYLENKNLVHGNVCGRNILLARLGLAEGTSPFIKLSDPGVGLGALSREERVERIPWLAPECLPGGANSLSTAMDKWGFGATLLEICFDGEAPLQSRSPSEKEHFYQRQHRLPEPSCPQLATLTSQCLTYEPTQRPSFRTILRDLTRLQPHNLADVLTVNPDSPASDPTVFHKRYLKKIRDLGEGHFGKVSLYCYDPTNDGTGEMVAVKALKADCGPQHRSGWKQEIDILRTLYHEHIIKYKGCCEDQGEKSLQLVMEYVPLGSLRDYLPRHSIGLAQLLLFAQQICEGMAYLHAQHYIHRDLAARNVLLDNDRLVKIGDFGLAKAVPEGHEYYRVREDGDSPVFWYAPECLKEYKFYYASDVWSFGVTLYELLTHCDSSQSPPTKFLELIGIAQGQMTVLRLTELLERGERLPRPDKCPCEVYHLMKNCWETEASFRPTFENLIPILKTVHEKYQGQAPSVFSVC
T1 sequence (O60674 whole entry): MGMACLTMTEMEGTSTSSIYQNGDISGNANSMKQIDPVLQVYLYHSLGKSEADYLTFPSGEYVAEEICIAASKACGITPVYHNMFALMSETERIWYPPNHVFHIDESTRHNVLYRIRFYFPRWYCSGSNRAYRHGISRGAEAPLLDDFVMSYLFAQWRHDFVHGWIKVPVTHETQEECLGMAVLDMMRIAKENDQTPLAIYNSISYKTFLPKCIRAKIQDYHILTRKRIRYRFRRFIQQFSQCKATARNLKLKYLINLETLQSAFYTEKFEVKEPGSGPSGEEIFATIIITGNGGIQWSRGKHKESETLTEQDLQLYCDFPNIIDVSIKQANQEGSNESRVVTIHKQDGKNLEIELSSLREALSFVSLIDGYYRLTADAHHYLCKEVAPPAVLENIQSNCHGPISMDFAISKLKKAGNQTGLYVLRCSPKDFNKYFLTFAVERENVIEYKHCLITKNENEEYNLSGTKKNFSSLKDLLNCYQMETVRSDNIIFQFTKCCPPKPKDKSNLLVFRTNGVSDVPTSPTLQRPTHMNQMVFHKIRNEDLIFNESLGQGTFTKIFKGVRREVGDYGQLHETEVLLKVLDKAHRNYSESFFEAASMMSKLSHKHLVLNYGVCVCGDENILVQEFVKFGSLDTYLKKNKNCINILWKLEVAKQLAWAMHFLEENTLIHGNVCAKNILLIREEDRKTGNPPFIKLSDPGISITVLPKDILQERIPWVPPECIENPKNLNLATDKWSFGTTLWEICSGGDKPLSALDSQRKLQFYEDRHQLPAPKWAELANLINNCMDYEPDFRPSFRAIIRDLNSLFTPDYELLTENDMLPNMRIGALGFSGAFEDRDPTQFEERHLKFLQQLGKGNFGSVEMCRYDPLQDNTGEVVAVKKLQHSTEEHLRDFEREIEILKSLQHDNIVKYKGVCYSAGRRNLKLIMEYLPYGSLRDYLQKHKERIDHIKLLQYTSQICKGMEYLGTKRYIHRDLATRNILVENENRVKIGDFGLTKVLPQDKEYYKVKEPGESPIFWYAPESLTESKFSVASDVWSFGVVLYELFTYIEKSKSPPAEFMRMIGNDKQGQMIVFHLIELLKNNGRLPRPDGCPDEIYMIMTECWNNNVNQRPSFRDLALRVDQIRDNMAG

With `Cn1cc(Nc2ncc(F)c(NCc3c(F)cc(S(N)(=O)=O)cc3F)n2)cn1` [Example I-379], the IC50 at JAK2 lay in the range of 1 to 10 µM; at TYK2 (setting [1]), 0.01 to 0.1 µM.

Turning to `CS(=O)(=O)c1ccc(F)c(CNc2nc(Nc3cnn(CC(N)=O)c3)ncc2Cl)c1` [Example I-100], the IC50 at JAK2 fell in the range of 0.1 to 1 µM; at TYK2 (setting [1]), 0.01 to 0.1 µM.

As to `CC(C)NC(=O)Cn1cc(Nc2nccc(NCc3c(F)cc(F)cc3F)n2)cn1` [Example I-50], the figures for the IC50 at JAK2, on TYK2 (setting [1]) and on TYK2 (read-out: TYK2 IC50) were 1 to 10 µM, 0.01 to 0.1 µM and less than 0.1 µM, respectively.

`C[C@H](CO)NC(=O)Cn1cc(Nc2nccc(NCc3c(F)cncc3F)n2)cn1` [Example I-147]: the IC50 is greater than 10 µM on JAK2 and 0.01 to 0.1 µM at TYK2 (setting [1]).

`CS(=O)(=O)c1cccc(CNc2nc(Nc3cnn(CCO)c3)ncc2Cl)c1` [Example I-363]: the IC50 at JAK2 lay within 1 to 10 µM; at TYK2 (setting [1]), 0.1 to 1 µM.

Take `COc1cc(F)c(CNc2nc(Nc3cnn(CC(N)=O)c3)ncc2C)c(F)c1` [Example I-315]: the IC50 on JAK2 lay within 1 to 10 µM; at TYK2 (setting [1]), 0.01 to 0.1 µM.

As for `Cn1cc(Nc2ncc(Cl)c(NCc3ccccc3)n2)cn1` [Example I-158], the figures for the IC50 at JAK2 and at TYK2 (setting [1]) were 1 to 10 µM and 0.1 to 1 µM, respectively.

`Cc1cnc(Nc2cnn(C)c2)nc1NCc1cc(F)cc(F)c1` [Example I-343]: the IC50 on JAK2 and on TYK2 (setting [1]) was 0.01 to 0.1 µM each time.

`CNC(=O)Cn1cc(Nc2ncc(Cl)c(NCc3cc(C(F)(F)F)ccc3F)n2)cn1` [Example I-279]: the IC50 at JAK2 fell in the range of 0.1 to 1 µM; at TYK2 (setting [1]), 0.01 to 0.1 µM.

Regarding `CCOc1ccc(F)c(CNc2nc(Nc3cn[nH]c3)ncc2Cl)c1F` [Example I-368], the IC50 was 1 to 10 µM on JAK2 and 0.01 to 0.1 µM on TYK2 (setting [1]).

As to `O=C(Cn1cc(Nc2ncc(F)c(NCc3cccc(OC(F)F)c3)n2)cn1)N1CCOCC1` [Example I-44], the IC50 on JAK2 was 1 to 10 µM; on TYK2 (setting [1]) it was no more than 0.01 µM.

Regarding `Cc1cnc(Nc2cnn(CC(=O)N3CCOCC3)c2)nc1NCc1c(F)cc(F)cc1F` [Example I-21], the half-inhibitory concentration (IC50) is 1 to 10 µM at JAK2 and no more than 0.01 µM on TYK2 (setting [1]).

On to `O=C(Cn1cc(Nc2nccc(NCc3c(F)cc(F)cc3F)n2)cn1)NC1CCOC1` (stereo not shown) [Example I-95], for which the IC50 on JAK2 is 1 to 10 µM; on TYK2 (setting [1]), 0.01 to 0.1 µM.

Regarding `O=C(Cn1cc(Nc2ncc(Cl)c(NCc3ccccn3)n2)cn1)N1CCOCC1` [Example I-338], the IC50 lay in the range of 1 to 10 µM at JAK2 and 0.1 to 1 µM at TYK2 (setting [1]).

`COCCNC(=O)Cn1cc(Nc2ncc(Cl)c(NCc3ccccc3)n2)cn1` [Example I-273]: the concentration for half-maximal inhibition (IC50) was 1 to 10 µM at JAK2 and 0.1 to 1 µM at TYK2 (setting [1]).

In the case of `Cc1ccc(F)c(CNc2nc(Nc3cn[nH]c3)ncc2Cl)c1F` [Example I-371], the concentration for half-maximal inhibition (IC50) at JAK2 was in the range of 1 to 10 µM; at TYK2 (setting [1]), 0.01 to 0.1 µM.

In the case of `O=C(Cn1cc(Nc2nccc(NCc3c(F)cc(F)cc3F)n2)cn1)NCCO` [Example I-89], the concentration for half-maximal inhibition (IC50) on JAK2 was 1 to 10 µM; on TYK2 (setting [1]), 0.01 to 0.1 µM.

For the molecule `CS(=O)(=O)c1ccccc1CNc1nc(Nc2cnn(CCO)c2)ncc1Cl` [Example I-266], the IC50 was 1 to 10 µM at JAK2 and 0.1 to 1 µM on TYK2 (setting [1]).

For `NS(=O)(=O)c1ccc(CNc2nc(Nc3cnn(CC(=O)N4CCOCC4)c3)ncc2F)cc1` [Example I-11], the values for the IC50 at JAK2 and on TYK2 (setting [1]) were greater than 10 µM and 0.01 to 0.1 µM, respectively.

In the case of `O=C(O)Cn1cc(Nc2ncc(F)c(NCc3c(F)cc(F)cc3F)n2)cn1` [Example I-307], the IC50 on JAK2 was greater than 10 µM; at TYK2 (setting [1]) it was 0.01 to 0.1 µM.

Turning to `COc1ccc(S(C)(=O)=O)cc1CNc1nc(Nc2cnn(CCO)c2)ncc1F` [Example I-88], the IC50 lay within 0.1 to 1 µM on JAK2 and 0.01 to 0.1 µM at TYK2 (setting [1]).

As to `O=C(Cn1cc(Nc2ncc(Cl)c(NCc3ccccc3)n2)cn1)N1CCCC1` [Example I-196], the results for the IC50 at JAK2 and at TYK2 (setting [1]) were 1 to 10 µM and 0.01 to 0.1 µM, respectively.

`Fc1cc(F)c(CNc2ccnc(Nc3cnn(CCN4CCOCC4)c3)n2)c(F)c1` [Example I-112]: the IC50 at JAK2 is 1 to 10 µM; at TYK2 (setting [1]), 0.01 to 0.1 µM; at TYK2 (read-out: TYK2 IC50) it was less than 0.1 µM.

Turning to `Cc1cnc(Nc2cnn(CC(F)F)c2)nc1NCc1ccccc1S(C)(=O)=O` [Example I-478], the IC50 at JAK2 is greater than 10 µM; at TYK2 (setting [1]), 1 to 10 µM.

`O=C(Cn1cc(Nc2ncc(F)c(NCc3cc(F)cc(C(F)(F)F)c3)n2)cn1)N1CCOCC1` [Example I-332]: the IC50 lay within 1 to 10 µM at JAK2 and 0.1 to 1 µM at TYK2 (setting [1]).

Take `CS(=O)(=O)c1ccc(F)c(CNc2nc(Nc3cnn(CCO)c3)ncc2F)c1` [Example I-115]: the IC50 on JAK2 was in the range of 1 to 10 µM; at TYK2 (setting [1]) it was 0.01 to 0.1 µM.

Consider `NC(=O)Cn1cc(Nc2ncc(F)c(NCc3c(Cl)cccc3Cl)n2)cn1` [Example I-328], for which the IC50 on JAK2 is 1 to 10 µM; at TYK2 (setting [1]) it was 0.01 to 0.1 µM.

For `Cn1cc(Nc2ncc(Cl)c(NCc3c(F)cccc3F)n2)cn1` [Example I-175], the IC50 at JAK2 fell in the range of 1 to 10 µM; at TYK2 (setting [1]) it was 0.01 to 0.1 µM.

For `CN(C)C(=O)Cn1cc(Nc2ncc(F)c(NCc3c(F)cc(F)cc3F)n2)cn1` [Example I-18], the concentration for half-maximal inhibition (IC50) on JAK2 lay in the range of 1 to 10 µM; on TYK2 (setting [1]) it was 0.01 to 0.1 µM.

In the case of `CNS(=O)(=O)c1ccccc1CNc1nc(Nc2cnn(CCO)c2)ncc1Cl` [Example I-472], the IC50 on JAK2 was 0.1 to 1 µM; on TYK2 (setting [1]), 0.01 to 0.1 µM.

For `O=C(O)Cn1cc(Nc2ncc(Cl)c(NCc3cc(F)cc(C(F)(F)F)c3)n2)cn1` [Example I-275], the IC50 on JAK2 is 1 to 10 µM; on TYK2 (setting [1]), 0.1 to 1 µM.

As for `[2H]C([2H])(O)C([2H])([2H])n1cc(Nc2ncc(Cl)c(NCc3cccc(OC)c3)n2)cn1` [Example I-235], the results for the IC50 on JAK2 and on TYK2 (setting [1]) were 1 to 10 µM and 0.1 to 1 µM, respectively.

`Cn1cc(Nc2ncc(Cl)c(NCc3cccc(S(N)(=O)=O)c3)n2)cn1` [Example I-198]: the results for the IC50 at JAK2 and at TYK2 (setting [1]) were 1 to 10 µM and 0.1 to 1 µM, respectively.

Take `CCOc1ccc(F)c(CNc2nc(Nc3cnn(CC(=O)NC)c3)ncc2Cl)c1F` [Example I-269]: the IC50 on JAK2 fell in the range of 1 to 10 µM; on TYK2 (setting [1]), 0.01 to 0.1 µM.

(Values after patent US9296725B2, “Heterocyclyl pyrimidine analogues as TYK2 inhibitors” (Cellzome Limited, priority 2012, dated 2016).)
